Measured values: patent US9669044B2, “Aminoglycoside and azole compositions and methods” (Utah State University, priority 2010, dated 2017)
≈ marks a conversion by molar mass, not a printed value. Read-outs that look alike come from different tables or passages of the source.

Assays:
Fusarium graminearum [1] = experiment: microbe, parasite or virus in culture; assay type: cell-based; details: for MIC: Fusarium graminearum, read-out: MIC (growth inhibition)
Rhodotorula pilimanae [2] = experiment: Disk diffusion growth inhibitory assay; assay type: cell-based; design: Relative Activity (zone of inhibition diameter): key: +++, considerable activity; ++, moderate activity; −−−, no activity
Rhodotorula pilimanae [3] = experiment: microbe, parasite or virus in culture; assay type: cell-based; details: Rhodotorula mucilaginosa
[4] = system: Saccharomyces cerevisiae W303C; assay type: cell-based; design: key to the marks not given beside the values; also: key: +++, considerable activity; ++, moderate activity; −−−, no activity
Mucor haemalis = experiment: Disk diffusion growth inhibitory assay; assay type: cell-based; design: key: +++, considerable activity; ++, moderate activity; −−−, no activity; details: PDA-CA medium
[5] = system: Azole-resistant Candida albicans ATCC 10231; experiment: Time-kill curves of itraconazole and K20; details: K20 alone, 32 μg mL^−1
Protocol: Method: Strain Candida albicans ATCC 10231 was prepared at an inoculum size of 10^5 c.f.u. mL^−1 in PDB-CA medium. The drug concentrations used were 32 μg mL^−1 for K20 and 0.18 μg mL^−1 for itraconazole. At designated times (0, 3, 6, 9, 24 and 48 h after incubation), 100 μL aliquots were removed from each solution and serially diluted 10-fold in sterile water. One hundred μL volumes of each dilution were streaked on agar surfaces of potato dextrose agar plates to allow growth. Colony counts were determined after incubation for 48 h. The experiment was performed triplicate.

[6] = system: Cladosporium cladosporioides; assay type: cell-based; design: key to the marks not given beside the values; also: key: +++, considerable activity; ++, moderate activity; −−−, no activity
Escherichia coli B = experiment: Bacterial MIC test in trypticase soy broth; assay type: cell-based; details: 35° C., 12-18 hrs
Protocol: (§1) For purposes of the experiments discussed in this paragraph, the MIC is defined as the lowest concentration of compound needed to inhibit the growth of bacteria. A solution of a selected bacterium was inoculated into trypticase soy broth (Difco, B D, Franklin Lakes, N.J., USA), at 35° C. and incubated for 1-2 hours. […] The 96-well plate was incubated at 35° C. for 12-18 hrs. The MIC tests were repeated at least three times.

Micrococcus luteus [7] = experiment: Bacterial MIC test in trypticase soy broth; assay type: cell-based; details: 35° C., 12-18 hrs
Protocol: as §1

[8] = system: Azole-resistant Candida albicans ATCC 10231; experiment: Microdilution checkerboard assay of K20 and azoles; assay type: cell-based; details: for MIC of azole in combination with K20: combined with K20; for Effect (drug interaction class by FICI) / FICI (Fractional Inhibitory Concentration Index): the row's azole combined with K20; for MIC: Candida albicans, ATCC10231, read-out: MIC, azole alone
Ulocladium spp. = experiment: Disk diffusion growth inhibitory assay; assay type: cell-based; design: key: +++, considerable activity; ++, moderate activity; −−−, no activity; details: PDA-CA medium
Penicillium spp = assay type: cell-based; design: key to the marks not given beside the values; also: key: +++, considerable activity; ++, moderate activity; −−−, no activity
Rhizopus stolonifer = experiment: Disk diffusion growth inhibitory assay; assay type: cell-based; design: key: +++, considerable activity; ++, moderate activity; −−−, no activity; details: PDA-CA medium
Fusarium culmorum = assay type: cell-based; design: key to the marks not given beside the values; also: key: +++, considerable activity; ++, moderate activity; −−−, no activity
Fusarium graminearum [9] = assay type: cell-based; details: disk diffusion, PDA-CA medium
[10] = system: Candida albicans ATCC 10231; experiment: Disk diffusion growth inhibitory assay; assay type: cell-based; design: key: +++, considerable activity; ++, moderate activity; −−−, no activity; details: PDA-CA medium
Fusarium oxysporum = experiment: Disk diffusion growth inhibitory assay; assay type: cell-based; design: key: +++, considerable activity; ++, moderate activity; −−−, no activity; details: PDA-CA medium
Microdochium nivale = assay type: cell-based; design: key to the marks not given beside the values; also: key: +++, considerable activity; ++, moderate activity; −−−, no activity
[11] = system: Azole-resistant Candida albicans ATCC 10231; experiment: Disk diffusion test for synergistic inhibition by itraconazole and K20; assay type: cell-based
[12] = system: Chinese Hamster Ovary (CHO) cells (line 1-15); assay type: cell-based; details: 3.7 μg mL^−1
Protocol: Method: […] The cells were transferred into sterile 50 mL Falcon conical plastic tubes containing 10 mL of the medium at a cell density of 2.5×10^5 cells mL^-1. […] The suspensions were incubated with continuous agitation for 48 h at 37° C. with 5% CO2 in a humidified incubator. After 24 and 48 h, lmL portions of the cell culture suspensions (drug treated or untreated) were transferred to Beckman Coulter Vi-Cell XR cups and mixed with Trypan Blue to determine cell counts and viability in a Beckman Coulter Vi-Cell counter.

Micrococcus luteus [13] = experiment: Disk diffusion growth inhibitory assay; assay type: cell-based; design: key to the marks not given beside the values; details: PDA-CA medium
Escherichia coli TG1 = assay type: cell-based; design: key to the marks not given beside the values; also: key: +++, considerable activity; ++, moderate activity; −−−, no activity
[14] = system: Staphylococcus aureus ATCC 6538; experiment: Disk diffusion growth inhibitory assay; assay type: cell-based; design: key to the marks not given beside the values; details: PDA-CA medium

CCCCCCCC(=O)OC[C@H]1OC(O[C@@H]2C(N)CC(N)C(O[C@H]3OC(CN)[C@@H](O)[C@H](O)C3O)[C@@H]2O)[C@H](O)[C@H](N)C1O (stereo partly drawn) [K05, 6″-O-octanoylkanamycin A]
MIC (Fusarium graminearum [1]): > 62.5 µg/mL | concentration giving no pigmentation (Fusarium graminearum [1]; against Fusarium graminearum): 31.25 µg/mL

CCCCCCCCNC[C@H]1OC(O[C@@H]2C(N)CC(N)C(O[C@H]3OC(CN)[C@@H](O)[C@H](O)C3O)[C@@H]2O)[C@H](O)[C@H](N)C1O (stereo partly drawn) [K17, 6″-deoxy-6″-octylaminokanamycin A]
activity in inhibition zone assay (Rhodotorula pilimanae [2]; against Rhodotorula pilimanae, result in words): Not determined. Only inhibition zone assay and not active against Rhodotorula pilimanae

CCCCCCCCSC[C@H]1OC(O[C@@H]2C(N)CC(N)C(O[C@H]3OC(CN)[C@@H](O)[C@H](O)C3O)[C@@H]2O)[C@H](O)[C@H](N)C1O (stereo partly drawn) [K18, 6″-deoxy-6″octylthiokanamycin A]
MIC (Fusarium graminearum [1]): 15.6 µg/mL (≈ 25.5 µM) | MIC (Rhodotorula pilimanae [3]): 62.5 µg/mL (≈ 102 µM)

Cc1ccc(S(=O)(=O)OC[C@H]2OC(O[C@@H]3C(N)CC(N)C(O[C@H]4OC(CN)[C@@H](O)[C@H](O)C4O)[C@@H]3O)[C@H](O)[C@H](N)C2O)cc1 (stereo partly drawn) [K19, 6″-O-toluenesulfonylkanamycin A]
inhibition of Rhodotorula (Rhodotorula pilimanae [2]; result in words, assay type (MIC or disk diffusion) not stated): relatively little but nevertheless some inhibition of Rhodotorula

CCCCCCCCS(=O)(=O)OCC1OC(OC2C(N)CC(N)C(OC3OC(CN)C(O)C(O)C3O)C2O)C(O)C(N)C1O (stereo not drawn) [K20, 6″-O-octanesulfonylkanamycin A]
Relative Activity (zone of inhibition diameter) [4]: ++ | Relative Activity (zone of inhibition diameter) (Mucor haemalis): +++ | time-kill effect [5]: the same as the control | Relative Activity (zone of inhibition diameter) [6]: ++ | MIC (Escherichia coli B): 250 µg/mL (≈ 378 µM) | MIC (Micrococcus luteus [7]): 62.5 µg/mL (≈ 94.6 µM) | MIC, K20 alone ([8]; checkerboard, PDB-CA): 128 µg/mL | MIC of K20 in combination ([8]; in combination with chlotrimazole): 8 µg/mL | MIC of K20 in combination ([8]; in combination with fluconazole): 16 µg/mL | MIC of K20 in combination ([8]; in combination with itraconazole): 32 µg/mL | MIC of K20 in combination ([8]; in combination with ketoconazole): 32 µg/mL | MIC of K20 in combination ([8]; in combination with metconazole): 8 µg/mL | MIC of K20 in combination ([8]; in combination with posaconazole): 16 µg/mL | MIC of K20 in combination ([8]; in combination with pyraclostrobin): 16 µg/mL | MIC of K20 in combination ([8]; in combination with tioconazole): 16 µg/mL | MIC of K20 in combination ([8]; in combination with voriconazole): 4 µg/mL | Relative Activity (zone of inhibition diameter) (Ulocladium spp.): +++ | Relative Activity (zone of inhibition diameter) (Penicillium spp): ++ | Relative Activity (zone of inhibition diameter) (Rhizopus stolonifer): +++ | Relative Activity (zone of inhibition diameter) (Fusarium culmorum): +++ | Relative Activity (zone of inhibition diameter) (Fusarium graminearum [9]): ^b+++ | Relative Activity (zone of inhibition diameter) [10]: ++ | Relative Activity (zone of inhibition diameter) (Rhodotorula pilimanae [2]): +++ | Relative Activity (zone of inhibition diameter) (Fusarium oxysporum): ++ | Relative Activity (zone of inhibition diameter) (Microdochium nivale): +++ | Zone of growth inhibition / fungicidal activity ([11]; K20 alone, 32 μg mL^−1 per disc): no fungicidal activities

CCCCCCS(=O)(=O)OC[C@H]1OC(O[C@@H]2C(N)CC(N)C(O[C@H]3OC(CN)[C@@H](O)[C@H](O)C3O)[C@@H]2O)[C@H](O)[C@H](N)C1O (stereo partly drawn) [K22, 6″-O-hexanesulfonylkanamycin A]
MIC (Fusarium graminearum [1]): 31.3 µg/mL (≈ 49.5 µM)

Clc1ccccc1C(c1ccccc1)(c1ccccc1)n1ccnc1 [chlotrimazole]
MIC, azole alone ([8]; checkerboard, PDB-CA): 1.25 µg/mL | MIC of azole in combination with K20 ([8]; checkerboard): 0.15 µg/mL | Effect (drug interaction class by FICI) [8]: synergy | FICI (Fractional Inhibitory Concentration Index) [8]: 0.18

OC(Cn1cncn1)(Cn1cncn1)c1ccc(F)cc1F [fluconazole]
MIC ([8]; checkerboard, PDB-CA): > 24 µg/mL | MIC of azole in combination with K20 ([8]; checkerboard): 3 µg/mL | Effect (drug interaction class by FICI) [8]: synergy | FICI (Fractional Inhibitory Concentration Index) [8]: 0.18

CCC(C)n1ncn(-c2ccc(N3CCN(c4ccc(OCC5COC(Cn6cncn6)(c6ccc(Cl)cc6Cl)O5)cc4)CC3)cc2)c1=O (stereo not drawn) [itraconazole]
MIC ([8]; checkerboard, PDB-CA): > 3 µg/mL | MIC of azole in combination with K20 ([8]; checkerboard): 0.18 µg/mL | Effect (drug interaction class by FICI) [8]: synergy | FICI (Fractional Inhibitory Concentration Index) [8]: 0.31 | decrease in cell viability [12]: 63% | Zone of growth inhibition / fungicidal activity ([11]; ITC alone, 0.5 μg mL^−1 per disc): no fungicidal activities

NCC1O[C@H](OC2C(N)CC(N)[C@@H](OC3O[C@H](CO)C(O)[C@@H](N)[C@H]3O)[C@H]2O)C(O)[C@@H](O)[C@@H]1O (stereo partly drawn) [kanamycin A]
MIC (Escherichia coli B; read-out: MIC): 1.95 µg/mL (≈ 4.02 µM) | MIC (Micrococcus luteus [7]; read-out: MIC): 0.98 µg/mL (≈ 2.02 µM) | Relative Activity (zone of inhibition diameter) (Micrococcus luteus [13]): +++ | Relative Activity (zone of inhibition diameter) (Escherichia coli TG1): +++ | Relative Activity (zone of inhibition diameter) [14]: +++

NC[C@H]1O[C@H](O[C@H]2[C@H](O)[C@@H](O[C@H]3O[C@H](CO)[C@@H](O)[C@H](N)[C@H]3O)[C@H](N)C[C@@H]2N)[C@H](N)[C@@H](O)[C@@H]1O [kanamycin B]
MIC (Escherichia coli B): 1.95 µg/mL (≈ 4.03 µM) | MIC (Micrococcus luteus [7]): 0.98 µg/mL (≈ 2.03 µM)

CC(=O)N1CCN(c2ccc(OCC3COC(Cn4ccnc4)(c4ccc(Cl)cc4Cl)O3)cc2)CC1 (stereo not drawn) [ketoconazole]
MIC ([8]; checkerboard, PDB-CA): 24 µg/mL | MIC of azole in combination with K20 ([8]; checkerboard): 1.5 µg/mL | Effect (drug interaction class by FICI) [8]: synergy | FICI (Fractional Inhibitory Concentration Index) [8]: 0.31

CC1(C)CCC(Cc2ccc(Cl)cc2)C1(O)Cn1cncn1 (stereo not drawn) [metconazole]
MIC ([8]; checkerboard, PDB-CA): 2.5 µg/mL | MIC of azole in combination with K20 ([8]; checkerboard): 0.15 µg/mL | Effect (drug interaction class by FICI) [8]: synergy | FICI (Fractional Inhibitory Concentration Index) [8]: 0.12

CC[C@@H]([C@H](C)O)n1ncn(-c2ccc(N3CCN(c4ccc(OC[C@@H]5CO[C@@](Cn6cncn6)(c6ccc(F)cc6F)C5)cc4)CC3)cc2)c1=O [posaconazole]
MIC ([8]; checkerboard, PDB-CA): > 0.75 µg/mL | MIC of azole in combination with K20 ([8]; checkerboard): 0.09 µg/mL | Effect (drug interaction class by FICI) [8]: synergy | FICI (Fractional Inhibitory Concentration Index) [8]: 0.24

COC(=O)N(OC)c1ccccc1COc1ccn(-c2ccc(Cl)cc2)n1 [pyraclostrobin]
MIC ([8]; checkerboard, PDB-CA): 6 µg/mL | MIC of azole in combination with K20 ([8]; checkerboard): 0.75 µg/mL | Effect (drug interaction class by FICI) [8]: synergy | FICI (Fractional Inhibitory Concentration Index) [8]: 0.25

Clc1ccc(C(Cn2ccnc2)OCc2ccsc2Cl)c(Cl)c1 (stereo not drawn) [tioconazole]
MIC ([8]; checkerboard, PDB-CA): 0.25 µg/mL | MIC of azole in combination with K20 ([8]; checkerboard): 0.03 µg/mL | Effect (drug interaction class by FICI) [8]: synergy | FICI (Fractional Inhibitory Concentration Index) [8]: 0.25

C[C@@H](c1ncncc1F)[C@](O)(Cn1cncn1)c1ccc(F)cc1F [voriconazole]
MIC ([8]; checkerboard, PDB-CA): > 1 µg/mL | MIC of azole in combination with K20 ([8]; checkerboard): 0.125 µg/mL | Effect (drug interaction class by FICI) [8]: synergy | FICI (Fractional Inhibitory Concentration Index) [8]: 0.15
